Source: the supplement of paper PMC10307832

How the values were obtained:
Assay in all cases: relative viability (nuclei count vs DMSO), 5 days (fraction); higher = more cells survive
201T = system: 201T
Method in brief: (§1)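 For relative viability, nuclei counts in treated wells were divided by those in vehicle wells. Lung cancer cell lines had been pin-tool dosed in 1536-well plates the day after seeding and cultured for 5 days, then fixed and stained in one step (final 0.05% Triton X-100, 1% formaldehyde, 1 ug/ml Hoechst) and imaged at 4×. Doses were one drug alone or a fixed anchor-drug dose plus five library-drug doses (not always all listed) in √10 steps, and values are duplicate-plate medians.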

BEN = system: BEN
Method in brief: as §1

HARA = system: HARA
Method in brief: as §1

HCC-366 = system: HCC-366
Method in brief: as §1

HCC-44 = system: HCC-44
Method in brief: as §1

HCC-78 = system: HCC-78
Method in brief: as §1

LU99A = system: LU99A
Method in brief: as §1

NCI-H1355 = system: NCI-H1355
Method in brief: as §1

NCI-H1437 = system: NCI-H1437
Method in brief: as §1

NCI-H1734 = system: NCI-H1734
Method in brief: as §1

NCI-H2009 = system: NCI-H2009
Method in brief: as §1

NCI-H2126 = system: NCI-H2126
Method in brief: as §1

NCI-H2347 = system: NCI-H2347
Method in brief: as §1

NCI-H2405 = system: NCI-H2405
Method in brief: as §1

NCI-H358 = system: NCI-H358
Method in brief: as §1

NCI-H441 = system: NCI-H441
Method in brief: as §1

NCI-H520 = system: NCI-H520
Method in brief: as §1

NCI-H727 = system: NCI-H727
Method in brief: as §1

NCI-H838 = system: NCI-H838
Method in brief: as §1

PC-3 [JPC-3] = system: PC-3 [JPC-3]
Method in brief: as §1

SW 1573 = system: SW 1573
Method in brief: as §1

UMC-11 = system: UMC-11
Method in brief: as §1

For COCC1(CO)C(=O)C2CCN1CC2 (centres undefined) [PRIMA-1MET] + Cc1cc(Nc2cc(N3CCN(C)CC3)nc(Sc3ccc(NC(=O)C4CC4)cc3)n2)n[nH]1 [Tozasertib] (partner 0.1 µM), the relative viability (201T; first compound 0.2 µM) was 1.12, the relative viability (201T; first compound 0.6325 µM) was 0.912 and the relative viability (201T; first compound 2 µM) was 0.899. For the same compound, the relative viability (201T; first compound 6.325 µM) was 0.908, the relative viability (201T; first compound 20 µM) was 0.905 and the relative viability (BEN; first compound 0.2 µM) was 0.504. The relative viability (BEN; first compound 0.6325 µM) was 0.473, the relative viability (BEN; first compound 6.325 µM) was 0.501 and the relative viability (BEN; first compound 20 µM) was 0.538. The relative viability (HARA; first compound 0.2 µM) was 0.119, the relative viability (HARA; first compound 0.6325 µM) was 0.0972 and the relative viability (HARA; first compound 6.325 µM) was 0.112. The relative viability (HARA; first compound 20 µM) was 0.118, the relative viability (HCC-366; first compound 0.2 µM) was 0.109 and the relative viability (HCC-366; first compound 0.6325 µM) was 0.107. The relative viability (HCC-366; first compound 2 µM) was 0.107, the relative viability (HCC-366; first compound 6.325 µM) was 0.209 and the relative viability (HCC-366; first compound 20 µM) was 0.0297. For the same compound, the relative viability (HCC-44; first compound 0.2 µM) was 1.18, the relative viability (HCC-44; first compound 0.6325 µM) was 0.958 and the relative viability (HCC-44; first compound 2 µM) was 0.811. The relative viability (HCC-44; first compound 6.325 µM) was 1.01, the relative viability (HCC-44; first compound 20 µM) was 0.827 and the relative viability (HCC-78; first compound 0.2 µM) was 0.47. It also gave a relative viability (HCC-78; first compound 0.6325 µM) of 0.414, a relative viability (HCC-78; first compound 6.325 µM) of 0.385 and a relative viability (HCC-78; first compound 20 µM) of 0.228. For the same compound, the relative viability (LU99A; first compound 0.2 µM) was 0.282, the relative viability (LU99A; first compound 0.6325 µM) was 0.268 and the relative viability (LU99A; first compound 2 µM) was 0.277. It also gave a relative viability (LU99A; first compound 6.325 µM) of 0.284, a relative viability (LU99A; first compound 20 µM) of 0.0311 and a relative viability (NCI-H1355; first compound 0.2 µM) of 0.581. For the same compound, the relative viability (NCI-H1355; first compound 0.6325 µM) was 0.568, the relative viability (NCI-H1355; first compound 2 µM) was 0.564 and the relative viability (NCI-H1355; first compound 6.325 µM) was 0.629. It also gave a relative viability (NCI-H1355; first compound 20 µM) of 0.517, a relative viability (NCI-H1437; first compound 0.2 µM) of 0.41 and a relative viability (NCI-H1437; first compound 0.6325 µM) of 0.408. The relative viability (NCI-H1437; first compound 2 µM) was 0.407, the relative viability (NCI-H1437; first compound 6.325 µM) was 0.411 and the relative viability (NCI-H1437; first compound 20 µM) was 0.407. It also gave a relative viability (NCI-H1734; first compound 0.2 µM) of 0.294, a relative viability (NCI-H1734; first compound 0.6325 µM) of 0.265 and a relative viability (NCI-H1734; first compound 2 µM) of 0.233. For the same compound, the relative viability (NCI-H1734; first compound 6.325 µM) was 0.181, the relative viability (NCI-H1734; first compound 20 µM) was 0.0526 and the relative viability (NCI-H2009; first compound 0.2 µM) was 0.846. It also gave a relative viability (NCI-H2009; first compound 0.6325 µM) of 0.742, a relative viability (NCI-H2009; first compound 2 µM) of 0.948 and a relative viability (NCI-H2009; first compound 6.325 µM) of 0.726. It also gave a relative viability (NCI-H2009; first compound 20 µM) of 0.0462, a relative viability (NCI-H2126; first compound 0.2 µM) of 1.07 and a relative viability (NCI-H2126; first compound 0.6325 µM) of 0.868. The relative viability (NCI-H2126; first compound 2 µM) was 0.854, the relative viability (NCI-H2126; first compound 6.325 µM) was 0.898 and the relative viability (NCI-H2126; first compound 20 µM) was 0.807. The relative viability (NCI-H2347; first compound 0.2 µM) was 0.566, the relative viability (NCI-H2347; first compound 0.6325 µM) was 0.531 and the relative viability (NCI-H2347; first compound 2 µM) was 0.237. For the same compound, the relative viability (NCI-H2347; first compound 6.325 µM) was 0.516, the relative viability (NCI-H2347; first compound 20 µM) was 0.433 and the relative viability (NCI-H2405; first compound 0.2 µM) was 0.735. The relative viability (NCI-H2405; first compound 0.6325 µM) was 0.812, the relative viability (NCI-H2405; first compound 6.325 µM) was 0.667 and the relative viability (NCI-H2405; first compound 20 µM) was 0.329. It also gave a relative viability (NCI-H358; first compound 0.2 µM) of 0.105, a relative viability (NCI-H358; first compound 2 µM) of 0.098 and a relative viability (NCI-H358; first compound 6.325 µM) of 0.117. It also gave a relative viability (NCI-H358; first compound 20 µM) of 0.0866, a relative viability (NCI-H441; first compound 0.2 µM) of 0.629 and a relative viability (NCI-H441; first compound 0.6325 µM) of 0.667. The relative viability (NCI-H441; first compound 2 µM) was 0.77, the relative viability (NCI-H441; first compound 6.325 µM) was 0.743 and the relative viability (NCI-H441; first compound 20 µM) was 0.309. For the same compound, the relative viability (NCI-H520; first compound 0.2 µM) was 0.402, the relative viability (NCI-H520; first compound 0.6325 µM) was 0.416 and the relative viability (NCI-H520; first compound 6.325 µM) was 0.384. It also gave a relative viability (NCI-H520; first compound 20 µM) of 0.236, a relative viability (NCI-H727; first compound 0.2 µM) of 0.549 and a relative viability (NCI-H727; first compound 0.6325 µM) of 0.543. The relative viability (NCI-H727; first compound 2 µM) was 0.643, the relative viability (NCI-H727; first compound 6.325 µM) was 0.487 and the relative viability (NCI-H727; first compound 20 µM) was 0.293. The relative viability (NCI-H838; first compound 0.2 µM) was 0.291, the relative viability (NCI-H838; first compound 0.6325 µM) was 0.286 and the relative viability (NCI-H838; first compound 2 µM) was 0.245. For the same compound, the relative viability (NCI-H838; first compound 6.325 µM) was 0.293, the relative viability (NCI-H838; first compound 20 µM) was 0.194 and the relative viability (PC-3 [JPC-3]; first compound 0.2 µM) was 0.996. For the same compound, the relative viability (PC-3 [JPC-3]; first compound 0.6325 µM) was 0.856, the relative viability (PC-3 [JPC-3]; first compound 2 µM) was 0.857 and the relative viability (PC-3 [JPC-3]; first compound 6.325 µM) was 0.89. For the same compound, the relative viability (PC-3 [JPC-3]; first compound 20 µM) was 0.873, the relative viability (SW 1573; first compound 0.2 µM) was 0.189 and the relative viability (SW 1573; first compound 0.6325 µM) was 0.0874. It also gave a relative viability (SW 1573; first compound 2 µM) of 0.191, a relative viability (SW 1573; first compound 6.325 µM) of 0.0585 and a relative viability (SW 1573; first compound 20 µM) of 0.0263. The relative viability (UMC-11; first compound 0.2 µM) was 0.215, the relative viability (UMC-11; first compound 0.6325 µM) was 0.183 and the relative viability (UMC-11; first compound 2 µM) was 0.195. The relative viability (UMC-11; first compound 6.325 µM) was 0.193 and the relative viability (UMC-11; first compound 20 µM) was 0.201.
